Laboratory results published in US20260355199A1, “COMPOSITIONS AND METHODS FOR TREATING OR PREVENTING NONALCOHOLIC STEATOHEPATITIS (NASH), ANOREXIA, DEPRESSION, ENDOMETRIOSIS, AND OTHER DISEASES OR DISORDERS” (priority 2022, published 2026).
“Also recorded” adds a separate entry of the source.

How the values were obtained:
AGRP, NPY and SLC32A1 = AGRP, NPY and SLC32A1 mRNA in SH-SY5Y cells; assay type: cell-based, human; conditions: 10 μM, 48 h
Excerpt: Mouse GT1-7 hypothalamic neuronal cell line (Sigma-Aldrich, SCC116) and human SH-SY5Y neuroblastoma cell line (Sigma Aldrich, 94030304) were purchased and cultured according to the manufacturers' instructions. Purified Ad-TET3 adenovirus (Ad-FLAG.h-TET3, ADV-225322, Vector Biolabs) expressing human TET3 from a CMV promoter and Ad-GFP control adenovirus (1060, Vector Biolabs) were purchased.
For Bobcat339 treatment (FIG. 15A and FIG. 15B), GT1-7 cells grown in 24-well plates at 2×10^5 cells/well were incubated with vehicle or Bobcat339 at a final concentration of 10 μM for 6 h, followed by RNA and protein extractions. […] Protein and RNA were isolated 48 h later and analyzed.
Total RNAs were extracted from neuronal cells or homogenized hypothalamic arcuate nucleus tissue samples using PureLink RNA Mini Kit (Ambion, 12183025). cDNA was synthesized using PrimeScript RT Reagent Kit in a 20 μl reaction containing 0.5-1 μg of total RNA. Real-time quantitative PCR was performed in a 15 μl reaction containing 0.5-1 μl of cDNA using SsoAdvanced Universal SYBR Green Supermix in a Bio-Rad iCycler. […]

TET3 = TET3 protein in the ARC of mice (immunofluorescence); assay type: in vivo, mouse
Experimental: To test whether Bobcat339 affects TET3 protein expression in AgRP neurons, Agrp-IRES-Cre::LSL-Cas9-GFP mice with GFP expression specifically in AgRP neurons were intraperitoneally injected with vehicle or Bobcat339 at 2.5 mg/kg, followed by isolation of ARCs under fed conditions (9:00-11:00) two days later. This dose was chosen based on the dose response studies. TET2 expression was widespread but was negligible in AgRP neurons.
Bobcat339 powder (Sigma-Aldrich, SML2611) was freshly dissolved in DMSO (vehicle) at a concentration of 50 mg/mL and filtered through a 0.22 micron. It was further diluted with 1×PBS to a final concentration of 0.5 mg/mL before injections. Mice were injected intraperitoneally with Bobcat339 at 1 mg/kg, 2.5 mg/kg, or 4 mg/kg.
The immunofluorescence for brain slices was conducted using previous methods (18). In brief, postfixed sections were cut into 40-μm-thick sections, followed by 5 times washing. Then the sections were incubated in blocking solution for 20 minutes and incubated with anti-TET3 (dilution 1:2000; Millipore Sigma, ABE290), anti-TET2 (dilution 1:500; Proteintech, 21207-1-AP), anti-AGRP (dilution 1:400; H-003-57, Phoenix Pharmaceuticals), anti-NPY (dilution 1:800, Cell Signaling Technology, 11976S), anti-VGAT (dilution 1:200; Abcam, Ab23592), or anti-FOS (dilution 1:1000; Biosensis, R-1751-050) overnight at 4 °C. Negative controls were performed by omitting the respective primary antibodies. The next day, sections were washed 5 times and incubated in 0.4% Triton x-100 PBS with the secondary antibody donkey anti-Rabbit IgG Fluor 594 (dilution 1:500; A-21207, Invitrogen) for 2 h at RT. The sections were coverslipped and scoped using a Keyence BZ-X700 fluorescence microscope. The fluorescence signals from GFP in AgRP neurons were detected without immunostaining.

Tet3 and Agrp = Tet3 and Agrp expression in leptin-treated GT1-7 cells; assay type: cell-based, mouse
Experimental: Mouse GT1-7 hypothalamic neuronal cell line (Sigma-Aldrich, SCC116), human SH-SY5Y neuronal blastoma cell line (ATCC, CRL-2266), and embryonic mouse hypothalamus cell line N11 (mHypoE-N11) (Cedarlane, CLU107) were purchased and cultured according to the manufacturers' instructions. For siRNA transfection in a 24-well plate scale, cells were seeded at a density of 2×10^5 cells/well the day before transfection. To prepare siRNA transfection solution for each well of cells, 5 pmol of NT siRNA (non-targeting control siRNA, AM4636, Ambion), Tet3 siRNA (siRNA specifically targeting mouse Tet3, 4390815/s101483, Ambion), or TET3 siRNA (siRNA specifically targeting human TET3, 4392420/s47238, Ambion) (Cao et al., 2019, Oncogene, 38:5356-5366; Xu et al., 2020, Cell Rep., 30:1310-1318) were mixed with 25 μl of OPTI-MEM (Gibco, 31985-070) by gentle pipetting (Cao, T. et al., 2019, Oncogene, 38:5356-5366; Xu, Y. et al., 2020, Cell Reports, 30:1310-1318 e5). In parallel, 1.5 μl of Lipofectamine RNAiMAX (Invitrogen, 13778-150) was mixed with 25 μl of OPTI-MEM by gentle pipetting. Following 5 min of incubation at room temperature, the resulting 50 μl of transfection solution was added to one well of cells containing 1 ml culture media. […]

With `Nc1nc(=O)n(-c2cccc(-c3ccccc3)c2)cc1Cl` [Bobcat339, 4-Amino-1-[1,1′-biphenyl]-3-yl-5-chloro-2(1H)-pyrimidinone] the “AGRP, NPY and SLC32A1 mRNA levels” value (AGRP, NPY and SLC32A1) was “significant increases in Agrp/NPY mRNAs”, the “TET3-positive AgRP neurons” value (TET3; 2.5 mg/kg i.p., two days) was “a clear decrease in the number of TET3-positive AgRP neurons; also recorded: decreased TET3 protein in AgRP neurons; also recorded: inhibited TET3 expression in AgRP neurons” and the “TET3 protein in non-AgRP cells” value (TET3; decrease limited to the tip regions of the ARC even at 4 mg/kg) was “decreased TET3 protein in non-AgRP cells”. The “onset of TET3 decrease in AgRP neurons and neuron activation” value (TET3; following exposure to Bobcat339) was “as early as three days”.

“leptin: adipose hormone; mouse leptin L3772-1MG or human leptin L4146-1MG, Sigma Aldrich” was tested, and the Tet3 expression (Tet3 and Agrp; leptin 1×10^−8 M vs. 1×10^−10 M) was “a positive effect on Tet3 expression; also recorded: upregulated TET3” and the “Agrp expression in response to increased leptin” value (Tet3 and Agrp; with TET3 knockdown) was “no longer decreased in response to increased leptin”.
